Measurements reported in patent US10364256B2 (GlaxoSmithKline Intellectual Property Development Limited, priority 2015, dated 2019).

Tests used:
[1] = biological target: T1, Keap1 Kelch domain (321-609) / TAMRA-labeled 16mer NRF2 peptide (ETGE motif) (Homo sapiens, UniProt Q14145); assay: NRF2-Keap1 FP Assay (Keap1 Kelch fluorescence polarization); assay type: binding; conditions: 20 nM Keap1 (321-609), 8 nM Tamra labeled peptide
T1 construct: the Kelch domain (321-609) of Keap1 is used
Procedure, shortened: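 Compound dilutions (3-fold) were incubated 1 hr at room temperature with 20 nM Keap1 Kelch (321-609) and 8 nM TAMRA-labeled ETGE 16mer peptide. Buffer was 50 mM Tris pH 8.0, 100 mM NaCl, 5 mM MgCl2, 1 mM DTT, 2 mM CHAPS, 0.005% BSA. Fluorescence polarization (mP) was normalized to controls and fitted with a four-parameter equation to give pIC50.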

[2] = system: NQO1 specific enzyme activity in BEAS-2B cells (marker for NRF2 activation); assay: BEAS-2B NQO1 MTT Assay; assay type: cell-based; conditions: Homo sapiens, compound incubated 48 hours, read-out: EC50 (NQO1 specific enzyme activity induction)
Procedure, shortened: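 BEAS-2B cells treated with compound for 48 h at 37 °C, then lysed; NQO1 activity in lysates measured kinetically by MTT reduction at A570 over 30 min. pEC50 from 3-parameter fit of ΔOD/min versus log concentration; lysate also taken for Cell Titer Glo.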

[3] = biological target: T2, full length Keap1 protein / full length NRF2 protein (Homo sapiens, UniProt Q14145); assay: NRF2-Keap1 TR-FRET Assay; assay type: binding; conditions: 25 nM Keap1-FlagHis and 50 nM biotin-NRF2 added
T2 construct: full length NRF2 protein and full length Keap1 protein (Keap1 exists a dimer) are used; His
Text: In the NRF2-Keap1 TR-FRET (time-resolved fluorescence resonance energy transfer) assay, full length NRF2 protein and full length Keap1 protein (Keap1 exists a dimer) are used. The assay detects the ability of compound to displace the binding of FlagHis-tagged Keap1 with biotinylated, Avi-tagged NRF2 protein. Biotin-NRF2 binds to streptavidin-europium (a component of the detection mix) and Keap1-FlagHis is recognized by anti-Flag APC (allophycocyanin) antibody (also a component of the detection mix). If binding occurs between the two proteins, there will be an energy transfer from the Eu+3 (donor) at 615 nm to the APC (acceptor) at 665 nm. A potential Keap1 inhibitor will cause a reduction in the TR-FRET signal by interfering with the binding of Keap1 to NRF2.
One hundred nanoliters of 100× compound dose response curves (serial 3-fold dilutions) in DMSO are stamped using an Echo liquid handling system (Labcyte) into 384-well, low volume, black assay plates (Greiner, #784076), with DMSO in columns 6 and 18. The top concentration of compound is located in columns 1 and 13. All reagents are diluted in assay buffer (50 mM Tris, pH 8.0, 5 mM MgCl2, 100 mM NaCl, 0.005% BSA, 1 mM DTT, and 2 mM CHAPS). The BSA, DTT, and CHAPS are added to the assay buffer on the day of assay. Using a Multidrop Combi (Thermo Electron Corporation) equipped with a metal tip dispenser, 5 ul of 25 nM Keap1-FlagHis protein is added to all wells of the compound plate, with the exception of the wells in column 18. Wells in column 18 receive 5 ul of assay buffer instead. Plates are centrifuged at 500 rpm for 1 minute, covered with a plate lid, and incubated at 37° C. for 2.25 hours. Plates are then removed from the incubator and allowed to cool to RT for 15 minutes. Five microliters of 50 nM biotin-NRF2 protein is then added to all wells of the plates and the plates are spun at 500 rpm for 1 minute, followed by incubating at 4° C. for 1.25 hours. The plates are then allowed to warm to RT for 15 minutes, followed by the addition of 10 ul of detection mix (1 nM Streptavidin Eu+ W1024 and 5 ug/ml mouse anti-DYKDDDDK IgG conjugated to SureLight APC antibody; both from Columbia Biosciences) to all wells. Plates are spun at 500 rpm for 1 minute, incubated for 1 hour at RT, and read on an Envision plate reader using a 320 nm excitation filter and 615 nm and 665 nm emission filters. Compound response (% inhibition) and potency (pIC50) are calculated based on the ratio of the two emissions (665 nm/615 nm) and then the transformed data is normalized against controls in the assay (control 1=1% DMSO in the presence of NRF2 and Keap1 protein and control 2=1% DMSO in the absence of protein). Data analysis is handled using the software package Abase XE (Surrey, United Kingdom). The % inhibition values are calculated from the ratio (transformed) data by the equation: 100−(100*(compound response−average control 2)/(average control 1−average control2)). For calculation of pIC50s, Abase XE uses a four parameter equation. pIC50 is the negative log of the IC50.

T2 sequence (Q14145 whole entry): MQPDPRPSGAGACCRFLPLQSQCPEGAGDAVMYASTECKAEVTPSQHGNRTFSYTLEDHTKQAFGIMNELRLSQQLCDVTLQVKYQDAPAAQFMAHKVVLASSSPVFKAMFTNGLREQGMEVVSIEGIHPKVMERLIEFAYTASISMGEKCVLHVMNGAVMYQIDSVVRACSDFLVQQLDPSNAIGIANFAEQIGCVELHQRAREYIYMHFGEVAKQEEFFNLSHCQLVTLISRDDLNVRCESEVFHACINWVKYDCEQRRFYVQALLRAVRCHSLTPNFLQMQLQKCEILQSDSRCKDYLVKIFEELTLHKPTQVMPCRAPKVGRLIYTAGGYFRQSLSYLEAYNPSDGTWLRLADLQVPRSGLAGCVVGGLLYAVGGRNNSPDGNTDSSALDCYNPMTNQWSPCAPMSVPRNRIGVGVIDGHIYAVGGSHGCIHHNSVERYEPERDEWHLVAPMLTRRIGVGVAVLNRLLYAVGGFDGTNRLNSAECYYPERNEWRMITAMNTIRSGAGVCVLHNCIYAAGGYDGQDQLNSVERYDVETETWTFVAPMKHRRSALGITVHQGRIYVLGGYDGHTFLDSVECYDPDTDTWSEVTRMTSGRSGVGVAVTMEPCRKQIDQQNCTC
T1 sequence (Q14145 321-609): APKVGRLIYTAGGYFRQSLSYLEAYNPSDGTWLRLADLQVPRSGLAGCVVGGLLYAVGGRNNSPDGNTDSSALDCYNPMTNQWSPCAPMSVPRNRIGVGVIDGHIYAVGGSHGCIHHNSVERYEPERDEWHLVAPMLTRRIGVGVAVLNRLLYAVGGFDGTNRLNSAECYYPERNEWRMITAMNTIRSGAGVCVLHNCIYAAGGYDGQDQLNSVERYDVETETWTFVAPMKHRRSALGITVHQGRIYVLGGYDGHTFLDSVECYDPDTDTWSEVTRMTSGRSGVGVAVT

Row | Compound | IC50 [1] [nM] | EC50 [2] [nM] | IC50 [3] [nM]
1 | COC(c1cccc(-c2cccc(-n3ncc(C(=O)O)c3C3CC3c3cn(C)nn3)c2)c1)C(C)C (stereo not drawn) [Example 184, 1-(3′-(1-Methoxy-2-methylpropyl)-[1,1′-biphenyl]-3-yl)-5-(2-(1-methyl-1H-1,2,3-triazol-4-yl)cyclopropyl)-1H-pyrazole-4-carboxylic acid] | 10 to 100 | 100 to 1000 | 100 to 1000
2 | CCCC1CCCN1C(=O)c1cccc(-c2cccc(-n3ncc(C(=O)O)c3C3CC3)c2)c1F (stereo not drawn) [Example 26, 5-Cyclopropyl-1-{3-[2-fluoro-3-(2-propylpyrrolidine-1-carbonyl)phenyl]phenyl}-1H-pyrazole-4-carboxylic Acid] | 10 to 100 | 1000 to 10000 | 100 to 1000
3 | Cn1cc([C@@H]2C[C@H]2c2c(C(=O)O)cnn2-c2cccc(-c3cccc(CN4CCOCC4)c3)c2)nn1 (racemic) [Example 248, 5-(trans-2-(1-Methyl-1H-1,2,3-triazol-4-yl)cyclopropyl)-1-(3′-(morpholinomethyl)-[1,1′-biphenyl]-3-yl)-1H-pyrazole-4-carboxylic Acid] | 100 to 1000 | 1000 to 10000 | 100 to 1000
4 | CN(C(=O)c1cccc(-c2cccc(-n3ncc(C(=O)O)c3C3CC3)c2)c1F)C1CCCC1 [Example 3, 1-(3-{3-[Cyclopentyl(methyl)carbamoyl]-2-fluorophenyl}phenyl)-5-cyclopropyl-1H-pyrazole-4-carboxylic Acid] | 100 to 1000 | 1000 to 10000 | 1000 to 10000
5 | CN(C(=O)c1cccc(-c2cccc(-n3ncc(C(=O)O)c3C3CC3)c2)c1F)C1CCCCC1 [Example 5, 1-(3-{3-[Cyclohexyl(methyl)carbamoyl]-2-fluorophenyl}phenyl)-5-cyclopropyl-1H-pyrazole-4-carboxylic Acid] | 100 to 1000 | 1000 to 10000 | 1000 to 10000
6 | Cn1cnc(C2CC2c2c(C(=O)O)cnn2-c2cccc(-c3cccc(OCC4CCCCC4)c3)c2)c1 (stereo not drawn) [Example 190, 1-(3′-(cyclohexylmethoxy)-[1,1′-biphenyl]-3-yl)-5-(2-(1-methyl-1H-imidazol-4-yl)cyclopropyl)-1H-pyrazole-4-carboxylic acid] | 1000 to 10000 | 1000 to 10000 | 10000 to 100000
7 | O=C(O)c1cnn(-c2cccc(-c3cccc(C(=O)N4CCCCCC4)c3F)c2)c1C1CC1 [Example 7, 1-{3-[3-(azepane-1-carbonyl)-2-fluorophenyl]phenyl}-5-cyclopropyl-1H-pyrazole-4-carboxylic Acid] | 10 to 100 | 1000 to 10000 | 1000 to 10000
8 | O=C(O)c1cnn(-c2cccc(-c3cccc(C(=O)N4CCCC(C(F)(F)F)C4)c3F)c2)c1C1CC1 (stereo not drawn) [Example 18, 5-Cyclopropyl-1-(3-{2-fluoro-3-[3-(trifluoromethyl)piperidine-1-carbonyl]phenyl}phenyl)-1H-pyrazole-4-carboxylic Acid] | 100 to 1000 | 1000 to 10000 | 1000 to 10000
9 | Cn1cc(C2CC2c2c(C(=O)O)cnn2-c2cccc(-c3cccc(OCC4CCCOC4)c3)c2)nn1 (stereo not drawn) [Example 169, 5-(2-(1-Methyl-1H-1,2,3-triazol-4-yl)cyclopropyl)-1-(3′-((tetrahydro-2H-pyran-3-yl)methoxy)-[1,1′-biphenyl]-3-yl)-1H-pyrazole-4-carboxylic acid] | 100 to 1000 | 1000 to 10000 | 100 to 1000
10 | COCC1CCCCN1C(=O)c1cccc(-c2cccc(-n3ncc(C(=O)O)c3C3CC3)c2)c1F (stereo not drawn) [Example 22, 5-Cyclopropyl-1-(3-{2-fluoro-3-[2-(methoxymethyl)piperidine-1-carbonyl]phenyl}phenyl)-1H-pyrazole-4-carboxylic Acid] | 10 to 100 | 1000 to 10000 | 1000 to 10000
11 | CN(CC1CCCC1)C(=O)c1cccc(-c2cccc(-n3ncc(C(=O)O)c3C3CC3)c2)c1F [Example 12, 1-(3-{3-[(Cyclopentylmethyl)(methyl)carbamoyl]-2-fluorophenyl}phenyl)-5-cyclopropyl-1H-pyrazole-4-carboxylic Acid] | 10 to 100 | 1000 to 10000 | 100 to 1000
12 | CN(CC1CC1)C(=O)c1cccc(-c2cccc(-n3ncc(C(=O)O)c3C(F)(F)F)c2)c1F [Example 47, 1-(3-{3-[(cyclopropylmethyl)(methyl)carbamoyl]-2-fluorophenyl}phenyl)-5-(trifluoromethyl)-1H-pyrazole-4-carboxylic Acid] | 100 to 1000 | 1000 to 10000 | 1000 to 10000
13 | O=C(O)c1cnn(-c2cccc(-c3cccc(C(=O)N4CCCC5(CCCOC5)C4)c3F)c2)c1C1CC1 (stereo not drawn) [Example 43, 5-Cyclopropyl-1-[3-(2-fluoro-3-{2-oxa-8-azaspiro[5.5]undecane-8-carbonyl}phenyl)phenyl]-1H-pyrazole-4-carboxylic Acid] | 10 to 100 | 1000 to 10000 | 100 to 1000
14 | CC(=O)N1CCC(c2c(C(=O)O)cnn2-c2cccc(-c3cccc(C(=O)N(C)C)c3)c2)CC1 [Example 46] | 1000 to 10000 | 1000 to 10000 | 10000 to 100000
15 | CN(CC1CC1)C(=O)c1cccc(-c2cccc(-n3ncc(C(=O)O)c3C3CC3)c2)c1F [Example 48, 5-cyclopropyl-1-(3-{3-[(cyclopropylmethyl)(methyl)carbamoyl]-2-fluorophenyl}phenyl)-1H-pyrazole-4-carboxylic Acid] | 100 to 1000 | 1000 to 10000 | 1000 to 10000
16 | CCCN(CC1CC1)C(=O)c1cccc(-c2cccc(-n3ncc(C(=O)O)c3C3CC3)c2)c1F [Example 9, 5-Cyclopropyl-1-(3-{3-[(cyclopropylmethyl)(propyl)carbamoyl]-2-fluorophenyl}phenyl)-1H-pyrazole-4-carboxylic Acid] | 10 to 100 | 1000 to 10000 | 1000 to 10000
17 | O=C(O)c1cnn(-c2cccc(-c3cccc(C(=O)N(CCC(F)(F)F)CC4CC4)c3F)c2)c1C1CC1 [Example 23, 5-Cyclopropyl-1-(3-{3-[(cyclopropylmethyl)(3,3,3-trifluoropropyl)carbamoyl]-2-fluorophenyl}phenyl)-1H-pyrazole-4-carboxylic Acid] | 100 to 1000 | 1000 to 10000 | 1000 to 10000
18 | COCCC(COc1cccc(-c2cccc(-n3ncc(C(=O)O)c3C3CC3c3cn(C)nn3)c2)c1)C1CCCCC1 (stereo not drawn) [Example 168, 1-(3′-(2-Cyclohexyl-4-methoxybutoxy)-[1,1′-biphenyl]-3-yl)-5-(2-(1-methyl-1H-1,2,3-triazol-4-yl)cyclopropyl)-1H-pyrazole-4-carboxylic acid] | 10 to 100 | 10 to 100 | 100 to 1000
19 | Cn1cc(CCCCOc2cccc(-c3cccc(-n4ncc(C(=O)O)c4C4CC4)c3)c2)nn1 [Example 153, 5-Cyclopropyl-1-(3′-(4-(1-methyl-1H-1,2,3-triazol-4-yl)butoxy)-[1,1′-biphenyl]-3-yl)-1H-pyrazole-4-carboxylic Acid] | 1000 to 10000 | 1000 to 10000 | 10000 to 100000
20 | CC(C)Oc1cccc(-c2cccc(-n3ncc(C(=O)O)c3C(F)(F)F)n2)c1 [Example 66, 1-(6-(3-Isopropoxyphenyl)pyridin-2-yl)-5-(trifluoromethyl)-1H-pyrazole-4-carboxylic Acid] | 1000 to 10000 | 1000 to 10000 | > 100000
